# Measurements taken from US20060172945A1, “Human neutrophil alpha-defensin 4 inhibition of HIV-1” (priority 2005, published 2006).
# Entries after “also recorded” stand apart in the source; their conditions may differ. No end group written: not given here.
# Tested on: HIV-1 isolates IIIB (X4), BaL (R5), B703 (X4), NSI03 (R5) in PBMC
# Assay: Inhibition of HIV-1 replication in PBMC, HIV-1 p24 antigen-capture ELISA
# Type: cell-based
# Conditions: HIV-1 infected human PBMC in vitro, p24 at day 4; HNP4 compared with HNPs 1-3
# Method: Inhibition of HIV-1 in vitro by α-defensins 1-3 was first reported by Nakashima et al, 1993 [11], which has been confirmed by several recent reports.
# Cells infected with the HIV-1 virus were added to duplicate series of wells containing varying concentrations of test defensin in 200 ul complete culture medium, and fed after 48 hours with fresh defensin of appropriate quantities. Medium alone was used as the control. The level of HIV-1 replication was measured at day 4 after infection by HIV-1 p24 antigen-capture ELISA. Percent infection was determined as a function of HIV p24 released into the medium in sample wells versus in control wells.
substance,measurement,value
"HNP4: Human neutrophil α-defensin 4, 33 amino acid residues; amino acid residues 64-96 of defensin 4 (VCSCRLVFCRRTELRVGNCLIGGVSFTYCCTRV; ends and bridges not checked; cysteine pairing not given here; UniProt P12838 64-96, looked up, fragment)",Inhibition of HIV-1 (in words),significantly more effective inhibitor than HNPs 1-3; also recorded: significantly and unexpectedly stronger
